Holding throughout (test): NCI anticancer screen, dose series, 48 h
In experiment [1] the test system is 786-0 renal.
For experiment [2], the system named is A549 NSCLC.
For experiment [3], the system named is BT-549 breast.
Experiment [4] relates to CAKI-1 renal.
Experiment [5] relates to COLO 205 colon.
Experiment [6] concerns DU-145 prostate.
In experiment [7] the test system is EKVX NSCLC.
Experiment [8] has as its system HCT-116 colon.
The subject of experiment [9] is HOP-62 NSCLC.
In experiment [10] the test system is HOP-92 NSCLC.
Experiment [11] deals with IGROV1 ovarian.
Experiment [12] deals with K-562 leukemia.
Experiment [13] has as its system M14 melanoma.
For experiment [14], the system named is NCI-H226 lung.
The test system of experiment [15] is OVCAR-4 ovarian.
Experiment [16] concerns OVCAR-5 ovarian.
Experiment [17] relates to SK-MEL-5 melanoma.
Experiment [18] deals with TK-10 renal.
The subject of experiment [19] is U251 CNS.
For experiment [20], the system named is UACC-62 melanoma.

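Following 48 hours of exposure in 96-well plates, responses at five concentrations were used to interpolate endpoints linearly. TGI is the concentration that stops growth completely.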 *1 amine or outer side, *2 acyl side, *3 side chain or, on linkers, in order; H or OH if unused. Where a SMILES comes first, the peptide text is derived from it. The star is where a group is joined. γGlu = O=C(O)[CH](CCC(=O)[*:2])N[*:1]; NHOH = ON* A value given as a limit tells only on which side of the number the result lay.

As to `CCc1ccc(/C=C/C(=O)C2CN(CC)CCC2(O)/C=C/c2ccc(CC)cc2)cc1` (stereo not given), the TGI in experiment [1] is 3.22 µM; in [2], 20 µM; in experiment [3] it was 11.2 µM; in [4] it was 18.7 µM; in experiment [5], 6.21 µM; in experiment [6] it was 21.6 µM. The TGI in experiment [7] was found to be 17.4 µM; in [8], 3.25 µM; in experiment [9], 3.54 µM; in [10], 5.33 µM; in [11] it was 4.35 µM; in experiment [12], 8.94 µM. The TGI in [13] was found to be 7.11 µM; in [14], 20.1 µM; in experiment [15], 14.7 µM; in [16], 9.69 µM; in experiment [17], 11.2 µM; in [18], 5.54 µM. The figures for the TGI in experiment [19] and in experiment [20] were 3.41 µM and 16.2 µM, respectively.

With `Cn1cnc2c1c(=O)n(CCNCCO)c(=O)n2C`, the TGI in experiment [1], in experiment [2], in experiment [3], in [4], in experiment [5] and in experiment [6] was above 100 µM in each case. Also, the TGI in experiment [7], in experiment [8], in [9], in [10], in experiment [11] and in [12] was above 100 µM throughout. The TGI in [13], in [14], in [15], in experiment [16], in [17] and in experiment [18] was above 100 µM throughout. Moreover, the TGI in experiment [19] and in experiment [20] was above 100 µM each time.

On to `COc1ccc(/C=C2\CCc3cc(OC)c(OC)cc3C2=O)cc1`, for which the TGI in experiment [1], in experiment [2], in experiment [3], in experiment [4], in experiment [5] and in experiment [6] was above 10 µM in each case. In addition, the TGI in [7], in experiment [8], in experiment [9], in experiment [10], in [11] and in experiment [12] was above 10 µM in each case. For the same compound, the TGI in experiment [13], in experiment [14], in experiment [15], in experiment [16], in experiment [17] and in [18] was above 10 µM throughout. For the same compound, the TGI in experiment [19] and in experiment [20] was above 10 µM throughout.

With `CCOC(=O)CNC(=O)C(CCC(=O)NO)NC(=O)CCC(N)C(=O)O` (stereo not given) (γGlu-Glu(NHOH)-Gly-OEt; configuration not given here), the TGI in [1], in experiment [2], in [3], in [4], in experiment [5] and in experiment [6] was above 100 µM each time. Besides, the TGI in experiment [7], in experiment [8], in experiment [9], in experiment [10], in experiment [11] and in [12] was above 100 µM in each case. The TGI in experiment [13], in [14], in [15], in experiment [16], in experiment [17] and in experiment [18] was above 100 µM throughout. Further, the TGI in experiment [19] and in experiment [20] was above 100 µM each time.

Consider `N#CCC1(c2ccc(Cl)cc2)NC(=O)c2ccccc21` (stereo not given), for which the TGI in experiment [1], in [2], in experiment [3], in experiment [4], in experiment [5] and in experiment [6] was above 100 µM throughout. Moreover, the TGI in experiment [7], in experiment [8], in [9], in experiment [10], in experiment [11] and in experiment [12] was above 100 µM each time. The TGI in experiment [13], in experiment [14], in experiment [15], in [16], in experiment [17] and in experiment [18] was above 100 µM each time. Besides, the TGI in experiment [19] and in experiment [20] was above 100 µM throughout.

In the case of `O=C(CSc1nc2ccc(I)cc2c(=O)n1Cc1ccccc1)NN1C(=O)c2ccccc2C1=O`, the TGI in experiment [1] was above 100 µM; in experiment [2], 72.5 µM; in experiment [3], 36.2 µM; in experiment [4], 33.5 µM; in [5] it was above 100 µM; in experiment [6], 95.1 µM. For the same compound, the TGI in experiment [7] is 42.2 µM; in [8], above 100 µM; in [9] it was 24 µM; in experiment [10], 35.9 µM; in experiment [11], 64.2 µM; in experiment [12], above 100 µM. The TGI in experiment [13] was above 100 µM; in experiment [14], 23.5 µM; in experiment [15], 38.2 µM; in experiment [16], 86.7 µM; in experiment [17], 68.6 µM; in experiment [18], 30.4 µM. Further, the TGI worked out at 30.1 µM in [19] and 70.7 µM in experiment [20].

`COC(=O)/C=C1\CCCN1CCc1cc2c(cc1CC#N)OCO2`: the TGI in experiment [1], in experiment [2], in experiment [3], in experiment [4], in [5] and in experiment [6] was above 100 µM each time. The TGI in experiment [7], in experiment [8], in experiment [9], in experiment [10], in [11] and in experiment [12] was above 100 µM throughout. In addition, the TGI was above 100 µM in experiment [13]; above 100 µM in [14]; above 100 µM in experiment [15]; above 100 µM in [16]; 81.2 µM in [17]; above 100 µM in experiment [18]. Besides, the TGI in experiment [19] and in experiment [20] was above 100 µM each time.

On to `CCCCCC1=C2C(c3ccc(OC)cc3)=C(N)C(c3ccc(OC)cc3)=C3NC(=O)C(C=C1)C32` (stereo not given), for which the TGI in experiment [1], in experiment [2], in experiment [3], in [4], in [5] and in experiment [6] was above 100 µM each time. Besides, the TGI was above 100 µM in experiment [7]; above 100 µM in [8]; above 100 µM in [9]; 60.7 µM in [10]; above 100 µM in experiment [11]; above 100 µM in experiment [12]. Besides, the TGI in experiment [13] was above 100 µM; in [14] it was 96.8 µM; in experiment [15], above 100 µM; in [16], above 100 µM; in experiment [17], above 100 µM; in [18], above 100 µM. Besides, the TGI in [19] and in experiment [20] was above 100 µM in each case.
